21 molecules from patent US11311520B2, “Substituted dihydroimidazopyridinediones as MKNK1 and MKNK2 inhibitors” (Bayer Pharma Aktiengesellschaft, priority 2017, dated 2022) can be followed below.

The target in the assay is human full-length MKNK1 (Homo sapiens (Human), UniProt Q9BUB5, T344D). Put plainly: MKNK1 kinase high ATP assay (TR-FRET). Conditions: 2 mM ATP, 15 min preincubation with enzyme, GST-MKNK1 (T344D). In kind it is biochemical. Summed up: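 GST-tagged full-length human MKNK1 (1-424, T344D, baculovirus-expressed) preincubated 15 min at 22 °C with compound, then reacted 30 min at 22 °C with 2 mM ATP and 0.06 μM biotinylated peptide (final) in HEPES pH 7.5. Phospho-substrate by TR-FRET (665/622 nm ratio), normalised to no-inhibitor and no-enzyme controls.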
human full-length MKNK1, sequence (Q9BUB5 other isoform, or with tags, fused parts or gaps T344D): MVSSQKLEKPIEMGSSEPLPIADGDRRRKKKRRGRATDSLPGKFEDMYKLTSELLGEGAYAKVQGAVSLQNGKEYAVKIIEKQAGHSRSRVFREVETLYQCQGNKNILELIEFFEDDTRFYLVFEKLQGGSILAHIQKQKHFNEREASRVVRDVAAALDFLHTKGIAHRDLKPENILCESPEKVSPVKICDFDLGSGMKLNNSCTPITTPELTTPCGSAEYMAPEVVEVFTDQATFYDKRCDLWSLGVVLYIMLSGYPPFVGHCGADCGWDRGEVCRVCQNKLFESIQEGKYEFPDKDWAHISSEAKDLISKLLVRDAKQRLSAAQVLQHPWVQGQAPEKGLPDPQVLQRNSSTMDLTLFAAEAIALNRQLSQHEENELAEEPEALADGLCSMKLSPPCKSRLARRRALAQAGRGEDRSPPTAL

A word on the IC50: it is the concentration at which inhibition is half-maximal. High values mean weaker potency, low ones greater potency. As for `Cc1cc(Nc2ncnc3sc(C(=O)N4CCN(C)CC4)c(C)c23)c(=O)n2c1C(=O)NC21CCCCC1` [Example 19, 8′-methyl-6′-({5-methyl-6-[(4-methylpiperazin-1-yl)carbonyl]thieno[2,3-d]pyrimidin-4-yl}amino)-2′H-spiro[cyclohexane-1,3′-imidazo[1,5-a]pyridine]-1′,5′-dione], the IC50 worked out at 0.0342 µM. With `Cc1cc(Nc2ncnc3[nH]ncc23)c(=O)n2c1C(=O)NC21CCCC1` [Example 68, 8′-methyl-6′-(1H-pyrazolo[3,4-d]pyrimidin-4-ylamino)-2′H-spiro[cyclopentane-1,3′-imidazo[1,5-a]pyridine]-1′,5′-dione] the figure was 0.0018 µM.

The molecule `Cc1cc(Nc2ncnc3ccc(C(F)(F)F)cc23)c(=O)n2c1C(=O)NC21CCCC1` [Example 184, 8′-methyl-6′-{[6-(trifluoromethyl)quinazolin-4-yl]amino}-2′H-spiro[cyclopentane-1,3′-imidazo[1,5-a]pyridine]-1′,5′-dione] had an IC50 of 0.034 µM. Under `Cc1cc(Nc2ncnc3ccc(C(F)(F)F)cc23)c(=O)n2c1C(=O)NC21CCCCC1` [Example 124, 8′-Methyl-6′-{[6-(trifluoromethyl)quinazolin-4-yl]amino}-2′H-spiro[cyclohexane-1,3′-imidazo[1,5-a]pyridine]-1′,5′-dione] stands 0.0499 µM; under `Cc1cc(Nc2ncnc3sc(C(=O)N(C)CCN(C)C)cc23)c(=O)n2c1C(=O)NC21CCCCC1` [Example 13, N-[2-(Dimethylamino)ethyl]-N-methyl-4-[(8′-methyl-1′,5′-dioxo-1′,5′-dihydro-2′H-spiro[cyclohexane-1,3′-imidazo[1,5-a]pyridin]-6′-yl)amino]thieno[2,3-d]pyrimidine-6-carboxamide], 0.0052 µM; under `Cc1cc(Nc2ncnc3sccc23)c(=O)n2c1C(=O)NC21CCCCC1` [Example 5, 8′-Methyl-6′-(thieno[2,3-d]pyrimidin-4-ylamino)-2′H-spiro[cyclohexane-1,3′-imidazo[1,5-a]pyridine]-1′,5′-dione], 0.0064 µM.

Regarding `Cc1cc(Nc2ncnc3cc(F)cc(F)c23)c(=O)n2c1C(=O)NC21CCCCC1` [Example 114, 6′-[(5,7-Difluoroquinazolin-4-yl)amino]-8′-methyl-2′H-spiro[cyclohexane-1,3′-imidazo[1,5-a]pyridine]-1′,5′-dione], the 50% inhibitory concentration (IC50) was determined as 0.0086 µM.

In turn, `Cc1cc(Nc2ncnc3c2CN(C(=O)[C@@H]2CCC(=O)N2)C3)c(=O)n2c1C(=O)NC21CCCCC1` [Example 77, 8′-Methyl-6′-[(6-{[(2S)-5-oxopyrrolidin-2-yl]carbonyl}-6,7-dihydro-5H-pyrrolo[3,4-cl]pyrimidin-4-yl)amino]-2′H-spiro[cyclohexane-1,3′-imidazo[1,5-a]pyridine]-1′,5′-dione] gave a half-inhibitory concentration (IC50) of 0.0559 µM.

In the case of `Cc1cc(Nc2ncnc3sc(C(=O)O)cc23)c(=O)n2c1C(=O)NC21CCCCC1` [Example 9, 4-[(8′-Methyl-1′,5′-dioxo-1′,5′-dihydro-2′H-spiro[cyclohexane-1,3′-imidazo[1,5-a]pyridin]-6′-yl)amino]thieno[2,3-d]pyrimidine-6-carboxylic acid], the IC50 stood at 0.0826 µM. Under `Cc1cc(Nc2ncnc3cccc(C)c23)c(=O)n2c1C(=O)NC21CSC1` [Example 174, 8-methyl-6-[(5-methylquinazolin-4-yl)amino]-2H-spiro[imidazo[1,5-a]pyridine-3,3′-thietane]-1,5-dione] stands 0.0128 µM; under `Cc1cc(Nc2ncnc3[nH]ccc23)c(=O)n2c1C(=O)NC21CCCC1` [Example 55, 8′-Methyl-6′-(7H-pyrrolo[2,3-d]pyrimidin-4-ylamino)-2′H-spiro[cyclopentane-1,3′-imidazo[1,5-a]pyridine]-1′,5′-dione], 0.0003 µM; under `COc1ccc2c(Nc3cc(C)c4n(c3=O)C3(CCCCC3)NC4=O)ncnc2c1` [Example 116, 6′-[(7-Methoxyquinazolin-4-yl)amino]-8′-methyl-2′H-spiro[cyclohexane-1,3′-imidazo[1,5-a]pyridine]-1′,5′-dione], 0.004 µM.

Turning to `Cc1cc(Nc2ncnc3sc(C(=O)N4CC(NC(=O)OC(C)(C)C)C4)cc23)c(=O)n2c1C(=O)NC21CCC1` [Example 153, tert-Butyl [1-({4-[(8′-methyl-1′,5′-dioxo-1′,5′-dihydro-2′H-spiro[cyclobutane-1,3′-imidazo[1,5-a]pyridin]-6′-yl)amino]thieno[2,3-d]pyrimidin-6-yl}carbonyl)azetidin-3-yl]carbamate], the IC50 worked out at 0.0053 µM. The IC50 values of the last two molecules are within 1.5-fold of each other. With `Cc1cc(Nc2ncnc3sc(C(=O)N4CC[C@@H](N(C)C)C4)cc23)c(=O)n2c1C(=O)NC21CCCC1` [Example 63, 6′-[(6-{[(3R)-3-(Dimethylamino)pyrrolidin-1-yl]carbonyl}thieno[2,3-d]pyrimidin-4-yl)amino]-8′-methyl-2′H-spiro[cyclopentane-1,3′-imidazo[1,5-a]pyridine]-1′,5′-dione] the figure was 0.0038 µM; with `Cc1cc(Nc2ncnc3sc(C(=O)NCCN(C)C)cc23)c(=O)n2c1C(=O)NC21CCC(O)(C(F)(F)F)CC1` (stereo not drawn) [Example 129, N-[2-(Dimethylamino)ethyl]-4-{[4-hydroxy-8′-methyl-1′,5′-dioxo-4-(trifluoromethyl)-1′,5′-dihydro-2′H-spiro[cyclohexane-1,3′-imidazo[1,5-a]pyridin]-6′-yl]amino}thieno[2,3-d]pyrimidine-6-carboxamide], 0.021 µM; with `Cc1cc(Nc2ncnc3sc(C(=O)N4CCN(C)CC4)cc23)c(=O)n2c1C(=O)NC21CCCCC1` [Example 12, 8′-Methyl-6′-({6-[(4-methylpiperazin-1-yl)carbonyl]thieno[2,3-d]pyrimidin-4-yl}amino)-2′H-spiro[cyclohexane-1,3′-imidazo[1,5-a]pyridine]-1′,5′-dione], 0.0272 µM.

The molecule `Cc1cc(Nc2ncnc3sc(C(=O)N4CC(N)C4)cc23)c(=O)n2c1C(=O)NC21CCCCC1` [Example 28, 6′-({6-[(3-Aminoazetidin-1-yl)carbonyl]thieno[2,3-d]pyrimidin-4-yl}amino)-8′-methyl-2′H-spiro[cyclohexane-1,3′-imidazo[1,5-a]pyridine]-1′,5′-dione] showed an IC50 of 0.0006 µM. For the molecule `Cc1cc(Nc2ncnc3c2CNC3)c(=O)n2c1C(=O)NC21CCCCC1` [Example 36, 6′-(6,7-Dihydro-5H-pyrrolo[3,4-d]pyrimidin-4-ylamino)-8′-methyl-2′H-spiro[cyclohexane-1,3′-imidazo[1,5-a]pyridine]-1′,5′-dione], the IC50 stood at 0.0191 µM. With `Cc1cc(Nc2ncnc3occc23)c(=O)n2c1C(=O)NC21CCCCC1` [Example 52, 6′-(Furo[2,3-d]pyrimidin-4-ylamino)-8′-methyl-2′H-spiro[cyclohexane-1,3′-imidazo[1,5-a]pyridine]-1′,5′-dione] the figure was 0.013 µM; with `Cc1cc(Nc2ncnc3ccc(Cl)cc23)c(=O)n2c1C(=O)NC21CS(=O)(=O)C1` [Example 180, 6-[(6-chloroquinazolin-4-yl)amino]-8-methyl-2H-spiro[imidazo[1,5-a]pyridine-3,3′-thietane]-1,5-dione 1′,1′-dioxide], 0.104 µM. With `Cc1cc(Nc2ncnc3sc(C(=O)N4CC[C@H](N(C)C)C4)cc23)c(=O)n2c1C(=O)NC21CCCCC1` [Example 30, 6′-[(6-{[(3S)-3-(Dimethylamino)pyrrolidin-1-yl]carbonyl}thieno[2,3-d]pyrimidin-4-yl)amino]-8′-methyl-2′H-spiro[cyclohexane-1,3′-imidazo[1,5-a]pyridine]-1′,5′-dione], the IC50 was found to be 0.0032 µM.
